Results as given in patent publication US5747235A, “Silver halide light sensitive emulsion layer having enhanced photographic sensitivity” (Eastman Kodak Company, priority 1996, dated 1998).
Where a name gives a salt, the structure may show the parent alone.

Experiments:
[1] = Example 3: photographic speed and fog, 365 nm exposure, emulsion T-2; set-up: Fog: unit not given here; details: for effect on dye desensitization: red dyed emulsion (D-II), 365 nm
Protocol: (§1) For photographic evaluation, each of the coating strips was exposed for 0.1 sec to a 365 nm emission line of a Hg lamp filtered through a Kodak Wratten filter number 18A and a step wedge ranging in density from 0 to 4 density units in 0.2 density steps. The exposed film strips were developed for 6 min in Kodak Rapid X-ray Developer (KRX). S365, relative sensitivity at 365 nm, was evaluated at a density of 0.2 units above fog.
(§2) This emulsion was precipitated using deionized gelatin. […] The chemically sensitized emulsion was then used to prepare coatings containing the fragmentable two-electron donor compounds. All of the experimental coating variations in Table III contained the hydroxybenzene 2,4-disulfocatechol (HB3) at a concentration of 13 mmole/ mole Ag, added to the melt before the addition of any further addenda. Where present, the blue sensitizing dye D-I or the red sensitizing dye D-II were added from methanol solution to the emulsion at 40° C. after the chemical sensitization and disulfocatechol addition.

[2] = Example 3: spectral sensitivity, wedge spectrographic exposure, emulsion T-2; details: dyed control=100
Protocol: as §2
Additional testing was carried out to determine the response of the coatings described in Table III to a spectral exposure. Each of the coating strips was exposed for 0.1 sec on a wedge spectrographic instrument that covers the wavelength range from 400 to 750 nm. The instrument contains a tungsten light source and a step tablet ranging in density from 0 to 3 density units in 0.3 density steps. After developing exposed strips for 6 min in Kodak Rapid X-ray Developer (KRX), speed was read at 10 nm wavelength intervals at a density of 0.3 above fog. Correction for the instrument's variation in spectral irradiance with wavelength was done with a computer and a plot of log sensitivity vs. wavelength was generated. For this exposure, for each dye used, the relative sensitivity was set equal to 100 for the control coating with no fragmentable two-electron donor compound added.

[3] = Example 10: photographic sensitivity and fog, color format, blue sensitized emulsion T-2; details: for Photographic Sensitivity SWR2B: control=100
Protocol: The hydroxybenzene, 2,4-disulfocatechcol (HB3) at a concentration of 13×10^-3 mole/mole Ag was added to the emulsion melt before the start of the chemical sensitization procedure. […] The fragmentable two-electron donors S-3, S-9, S-6, or S-8 were then added to the emulsion melt.
The melts were prepared for coating by adding additional water, deionized gelatin and coating surfactants. Coatings were prepared by combining the emulsion melts with a melt containing deionized gelatin and an aqueous dispersion of the cyan-forming color coupler CC-1 and coating the resulting mixture on acetate support. […] The structure of the color coupler CC-1 is given below: [drawing 120]
For photographic evaluation, each of the coating strips was exposed for 0.01 sec to a 3000K color temperature tungsten lamp filtered to give an effective color temperature of 5500K and further filtered through a Kodak Wratten filter number 2B, and a step wedge ranging in density from 0 to 4 density units in 0.20 density steps. This exposure gives light absorbed mainly by the blue sensitizing dye. The exposed film strips were developed for 31/4 minutes in Kodak C-41 color developer. SWR2B, relative sensitivity for this filtered exposure, was evaluated at a cyan density of 0.15 units above fog.

[4] = Example 4: photographic speed and fog, 365 nm exposure, blue dyed emulsion T-2; set-up: Fog: unit not given here; details: for Fog / S365: dye I 0.91 x10^-3; for S365: dyed control=100; for fog change: Table IV
Protocol: as §1
(§3) An AgBrI tabular silver halide emulsion (Emulsion T-2) was prepared containing 4.05% total I distributed such that the central portion of the emulsion grains contained 1.5% I and the perimeter area contained substantially higher I, as described by Chang et. al., U.S. Pat. No. 5,314,793. […] This emulsion was precipitated using deionized gelatin. The emulsion was sulfur sensitized by adding 8.5×10^-6 mole 1,3-dicarboxymethyl-1,3-dimethyl-2-thiourea /mole Ag at 40° C.; the temperature was then raised to 60° C. at a rate of 5° C./3 min and the emulsions held for 20 min before cooling to 40° C. The chemically sensitized emulsion was then used to prepare coatings containing the fragmentable two-electron donor compounds. All of the experimental coating variations in Table III contained the hydroxybenzene 2,4-disulfocatechol (HB3) at a concentration of 13 mmole/ mole Ag, added to the melt before the addition of any further addenda. Where present, the blue sensitizing dye D-I or the red sensitizing dye D-II were added from methanol solution to the emulsion at 40° C. after the chemical sensitization and disulfocatechol addition. The fragmentable two-electron donor compounds were added to the emulsion at 40° C. and the coatings were prepared and tested as described in Example 1, except that the additional gelatin used to prepare the coatings described in Table III was deionized gelatin.
The chemically sensitized AgBrI tabular emulsion T-2 as described in Example 3 was used to prepare the experimental coating variations listed in Table IV, comparing various structurally related fragmentable two-electron donating compounds varying in first oxidation potential E1. The blue sensitizing dye D-I was added from methanol solution to the emulsion at 40° C. after the chemical sensitization. The fragmentable two-electron donating compounds were then added to the emulsion and coatings prepared and tested as described in Example 3.

[5] = Example 9: photographic speed and fog, 365 nm exposure, red dyed emulsion T-2; details: for Fog / S365: dye II 0.86 x10^-3; for S365: undyed control=100, dyed control 62; for 365 nm sensitivity of dyed emulsion: dye D-II
Protocol: as §1, §3
The sulfur sensitized AgBrI tabular emulsion T-2 as described in Example 3 was used to prepare coatings of the fragmentable two-electron donors S-15, S-14, S-13, and S-11, as described in Table IX. All of the experimental coating variations in Table IX contained the hydroxybenzene, 2,4-disulfocatechcol (HB3) at a concentration of 13 mmole/mole Ag, added to the melt before any further addenda. Where present, the red sensitizing dye D-II was added from methanol solution to the emulsion at 40° C. after the chemical sensitization and disulfocatechol addition. The fragmentable two-electron donor compounds were then added to the emulsion and coatings prepared and tested as described in Example I, except that the additional gelatin used to prepare the coatings described in Table IX was deionized gelatin.

[6] = 0.0022 x10^-3 mole/mole Ag, dye II 0.86 x10^-3
[7] = 0.0022 x10^-3 mole/mole Ag, dye II 0.86 x10^-3, dyed control 68
[8] = 0.007 x10^-3 mole/mole Ag, dye II 0.86 x10^-3
[9] = 0.022 x10^-3 mole/mole Ag, dye I 0.91 x10^-3
[10] = 0.022 x10^-3 mole/mole Ag, dye I 0.91 x10^-3, dyed control 105
[11] = 0.007 x10^-3 mole/mole Ag, dye II 0.86 x10^-3, dyed control 68
[12] = 0.07 x10^-3 mole/mole Ag, dye I 0.91 x10^-3
[13] = 0.07 x10^-3 mole/mole Ag, dye I 0.91 x10^-3, dyed control 105
[14] = 0.07 x10^-3 mole/mole Ag, no dye
[15] = 0.07 x10^-3 mole/mole Ag, no dye, control=100

| SMILES | Fog [1, 6] | S365 [1, 7] | Fog [1, 8] | Fog [1, 9] | S365 [1, 10] | effect on dye desensitization [1] | Sλ [2, 6] | Sλ [2, 9] | Fog ([3]; 0.022 x10^-3 mol/mol Ag) | Photographic Sensitivity SWR2B ([3]; 0.022 x10^-3 mol/mol Ag) | Fog ([3]; 0.07 x10^-3 mol/mol Ag) | Photographic Sensitivity SWR2B ([3]; 0.07 x10^-3 mol/mol Ag) | Fog ([4]; 0.22 x10^-3 mole/mole Ag) | S365 ([4]; 0.22 x10^-3 mole/mole Ag) | Fog ([4]; 0.44 x10^-3 mole/mole Ag) | S365 ([4]; 0.44 x10^-3 mole/mole Ag) | Fog ([4]; 0.88 x10^-3 mole/mole Ag) | Fog ([5]; 0.007 x10^-3 mol/mol Ag) | S365 ([5]; 0.007 x10^-3 mol/mol Ag) | Fog ([5]; 0.022 x10^-3 mol/mol Ag) | other results |
| --- | --- | --- | --- | --- | --- | --- | --- | --- | --- | --- | --- | --- | --- | --- | --- | --- | --- | --- | --- | --- | --- |
| CCSCCN(c1ccc(C)cc1)[C@@H](C)C(=O)[O-].[Na+] [Compound S-3, N-(4-Methylphenyl)-N-(2-ethylthio-ethyl)alanine sodium salt] | 0.28 | 120 | 0.75 | 0.16 | 132 | effective in ameliorating dye desensitization | 166 | 120 | 0.14 | 97 | 0.19 | 110 |  |  |  |  |  |  |  |  | Fog ([1]; 0.022 x10^-3 mole/mole Ag, no dye): 0.13; S365 ([1]; 0.022 x10^-3 mole/mole Ag, no dye, control=100): 151 |
| CCSCCN(c1ccc(C)cc1)C(CC(=O)O)C(=O)O (centres unmarked) [Compound S-8] | 0.11 | 97 | 0.15 | 0.07 | 118 | effective in ameliorating dye desensitization | 141 | 112 | 0.14 | 107 | 0.23 | 110 |  |  |  |  |  |  |  |  | S365 [1, 11]: 112; Fog [1, 12]: 0.12; S365 [1, 13]: 120; Fog [1, 14]: 0.13; S365 [1, 15]: 162; Sλ [2, 8]: 166; Sλ [2, 12]: 112 |
| CCSCCN(c1ccccc1)C(C)C(=O)O (centres unmarked) [Compound S-9, N-(Phenyl)-N-(2-thioethyl-ethyl)alanine sodium salt] | 0.24 | 115 | 0.44 | 0.08 | 159 | effective in ameliorating dye desensitization | 162 | 126 | 0.16 | 162 | 0.19 | 182 | 0.21 | 129 | 0.41 | 102 | 0.63 |  |  |  | S365 [1, 11]: 107; Fog [1, 12]: 0.13; S365 [1, 13]: 162; Fog [1, 14]: 0.13; S365 [1, 15]: 166; Sλ [2, 8]: 141; Sλ [2, 12]: 138; fog change [4]: modest increases in fog |
| CCSCCN(c1ccc(C(=O)O)cc1)C(C)C(=O)O (centres unmarked) [Compound S-11] |  |  |  |  |  |  |  |  |  |  |  |  | 0.05 | 145 | 0.06 | 145 | 0.07 | 0.12 | 87 | 0.13 | S365 ([5]; 0.022 x10^-3 mol/mol Ag): 100; 365 nm sensitivity of dyed emulsion [5]: restored to that of the undyed emulsion; S365 ([4]; 0.88 x10^-3 mole/mole Ag): 145 |
| CCSCCN(c1ccc(Cl)cc1)C(C)C(=O)O (centres unmarked) [Compound S-12, N-(4-Chlorophenyl)-N-(2-thioethyl-ethyl)alanine sodium salt] |  |  |  |  |  |  |  |  |  |  |  |  | 0.18 | 145 | 0.21 | 141 | 0.29 |  |  |  | S365 ([4]; 0.88 x10^-3 mole/mole Ag): 138; fog change [4]: modest increases in fog |
| CCSCCN(c1cccc(C(N)=O)c1)C(C)C(=O)O (centres unmarked) [Compound S-13] |  |  |  |  |  |  |  |  |  |  |  |  | 0.10 | 151 | 0.13 | 151 | 0.14 | 0.13 | 95 | 0.20 | S365 ([5]; 0.022 x10^-3 mol/mol Ag): 102; 365 nm sensitivity of dyed emulsion [5]: restored to that of the undyed emulsion; S365 ([4]; 0.88 x10^-3 mole/mole Ag): 166 |
| CCSCCN(c1ccccc1)C(CC(=O)O)C(=O)O (centres unmarked) [Compound S-14] |  |  |  |  |  |  |  |  |  |  |  |  |  |  |  |  |  | 0.11 | 89 | 0.14 | S365 ([5]; 0.022 x10^-3 mol/mol Ag): 97; 365 nm sensitivity of dyed emulsion [5]: restored to that of the undyed emulsion |
